Reference: PubChem BioAssay AID1963422 (Molecular Pharmacology Branch, DTP, NCI, 2024)
pIC50: −log10 of the molar value. “And” between values parts separate entries of the source, which are not always exact repeats. Equal values may be shown once.

Test system: 463943-066-T-J2-PDC complex spheroid growth
Experiment: Anticancer human tumor 463943-066-T-J2-PDC patient-derived colon adenocarcinoma cell line growth inhibition [Asc]
Settings: for viability, T/C: stronger effect = lower value
Summary of the method: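 Tumor cells were grown as complex spheroids with human endothelial cells (HUVEC) and human mesenchymal stem cells as stroma. Agents were tested alone and in combination, in half-log steps down from the clinical Cmax, or from 10 microM where Cmax was unknown.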
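Also: compound exposure lasted 7 days.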
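For viability, T/C in this document: 100% = DMSO vehicle control wells.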

NC1CCC(NC2CC2c2ccccc2)CC1 (stereo unspecified) + CCN1C(C(=O)NC23CCC(C(=O)O)(CC2)CC3)C(c2cccc(Cl)c2F)C2(C(=O)Nc3cc(Cl)ccc32)C12CCCCC2
pIC50 (curve of first compound, second compound 0.00949 µM): < 7.00 | pIC50 (curve of first compound, second compound 0.03 µM): < 7.00 | pIC50 (curve of first compound, second compound 0.0949 µM): < 7.00 | pIC50 (curve of first compound, second compound 0.3 µM): < 7.00 | pIC50 (curve of first compound, second compound 0.949 µM): < 7.00 | pIC50 (curve of first compound, second compound 3 µM): < 7.00 | viability, T/C (second compound 0.00949 µM, first compound 0.000316 µM): 89.9% | viability, T/C (second compound 0.00949 µM, first compound 0.001 µM): 76.8% | viability, T/C (second compound 0.00949 µM, first compound 0.00316 µM): 87.3% | viability, T/C (second compound 0.00949 µM, first compound 0.01 µM): 91.6% | viability, T/C (second compound 0.00949 µM, first compound 0.0316 µM): 87.1% | viability, T/C (second compound 0.00949 µM, first compound 0.1 µM): 89% | viability, T/C (second compound 0.03 µM, first compound 0.000316 µM): 88.8% | viability, T/C (second compound 0.03 µM, first compound 0.001 µM): 79.3% | viability, T/C (second compound 0.03 µM, first compound 0.00316 µM): 83.1% | viability, T/C (second compound 0.03 µM, first compound 0.01 µM): 82.5% | viability, T/C (second compound 0.03 µM, first compound 0.0316 µM): 86.2% | viability, T/C (second compound 0.03 µM, first compound 0.1 µM): 75.3% | viability, T/C (second compound 0.0949 µM, first compound 0.000316 µM): 84.6% | viability, T/C (second compound 0.0949 µM, first compound 0.001 µM): 80.8% | viability, T/C (second compound 0.0949 µM, first compound 0.00316 µM): 77.1% | viability, T/C (second compound 0.0949 µM, first compound 0.01 µM): 82.8% | viability, T/C (second compound 0.0949 µM, first compound 0.0316 µM): 82.4% | viability, T/C (second compound 0.0949 µM, first compound 0.1 µM): 75.4% | viability, T/C (second compound 0.3 µM, first compound 0.000316 µM): 78.2% | viability, T/C (second compound 0.3 µM, first compound 0.001 µM): 77.3% | viability, T/C (second compound 0.3 µM, first compound 0.00316 µM): 71.5% | viability, T/C (second compound 0.3 µM, first compound 0.01 µM): 79% | viability, T/C (second compound 0.3 µM, first compound 0.0316 µM): 74.7% | viability, T/C (second compound 0.3 µM, first compound 0.1 µM): 71.9% | viability, T/C (second compound 0.949 µM, first compound 0.000316 µM): 67.7% | viability, T/C (second compound 0.949 µM, first compound 0.001 µM): 71.3% | viability, T/C (second compound 0.949 µM, first compound 0.00316 µM): 66.7% | viability, T/C (second compound 0.949 µM, first compound 0.01 µM): 67.2% | viability, T/C (second compound 0.949 µM, first compound 0.0316 µM): 71.5% | viability, T/C (second compound 0.949 µM, first compound 0.1 µM): 65.8% | viability, T/C (second compound 3 µM, first compound 0.000316 µM): 69.4% | viability, T/C (second compound 3 µM, first compound 0.001 µM): 68% | viability, T/C (second compound 3 µM, first compound 0.00316 µM): 66.5% | viability, T/C (second compound 3 µM, first compound 0.01 µM): 65.8% | viability, T/C (second compound 3 µM, first compound 0.0316 µM): 71% | viability, T/C (second compound 3 µM, first compound 0.1 µM): 64.3%

COc1c(OCCCN2CCOCC2)ccc2c3n(c(=NC(=O)c4cnc(N)nc4)nc12)CCN3
viability, T/C (compound 0.00316 µM): 94.5% and 96.1% | viability, T/C (compound 0.01 µM): 90.6% and 82% | viability, T/C (compound 0.0316 µM): 77.9% and 77.5% | viability, T/C (compound 0.1 µM): 65.9% and 65.1% | viability, T/C (compound 0.316 µM): 59% and 58.9% | viability, T/C (compound 1 µM): 41.5% and 44.9% | pIC50 (curve of compound): 6.28 and 6.18

CCN1C(C(=O)NC23CCC(C(=O)O)(CC2)CC3)C(c2cccc(Cl)c2F)C2(C(=O)Nc3cc(Cl)ccc32)C12CCCCC2 (stereo unspecified) + Cc1c(S(C)(=O)=O)c(-c2cc(F)cc(N3CCN(c4ccc(NS(=O)(=O)c5ccc(NC(CCN6CCC(C(=O)OCCCP(=O)(O)O)CC6)CSc6ccccc6)c(S(=O)(=O)C(F)(F)F)c5)cc4)CC3)c2)c(-c2ccc(Cl)cc2)n1C(C)C
pIC50 (curve of first compound, second compound 0.0316 µM): < 5.52 | pIC50 (curve of first compound, second compound 0.1 µM): < 5.52 | pIC50 (curve of first compound, second compound 0.316 µM): < 5.52 | pIC50 (curve of first compound, second compound 1 µM): < 5.52 | pIC50 (curve of first compound, second compound 3.16 µM): 6.85 | pIC50 (curve of first compound, second compound 10 µM): > 8.02 | viability, T/C (second compound 0.0316 µM, first compound 0.00949 µM): 90.4% | viability, T/C (second compound 0.0316 µM, first compound 0.03 µM): 92.3% | viability, T/C (second compound 0.0316 µM, first compound 0.0949 µM): 89.3% | viability, T/C (second compound 0.0316 µM, first compound 0.3 µM): 76.5% | viability, T/C (second compound 0.0316 µM, first compound 0.949 µM): 70.2% | viability, T/C (second compound 0.0316 µM, first compound 3 µM): 61.8% | viability, T/C (second compound 0.1 µM, first compound 0.00949 µM): 88.9% | viability, T/C (second compound 0.1 µM, first compound 0.03 µM): 83.2% | viability, T/C (second compound 0.1 µM, first compound 0.0949 µM): 85.9% | viability, T/C (second compound 0.1 µM, first compound 0.3 µM): 73.3% | viability, T/C (second compound 0.1 µM, first compound 0.949 µM): 71.1% | viability, T/C (second compound 0.1 µM, first compound 3 µM): 60.8% | viability, T/C (second compound 0.316 µM, first compound 0.00949 µM): 80.6% | viability, T/C (second compound 0.316 µM, first compound 0.03 µM): 92.2% | viability, T/C (second compound 0.316 µM, first compound 0.0949 µM): 77.6% | viability, T/C (second compound 0.316 µM, first compound 0.3 µM): 71.4% | viability, T/C (second compound 0.316 µM, first compound 0.949 µM): 64.7% | viability, T/C (second compound 0.316 µM, first compound 3 µM): 57.2% | viability, T/C (second compound 1 µM, first compound 0.00949 µM): 70.1% | viability, T/C (second compound 1 µM, first compound 0.03 µM): 70.8% | viability, T/C (second compound 1 µM, first compound 0.0949 µM): 62.9% | viability, T/C (second compound 1 µM, first compound 0.3 µM): 58.4% | viability, T/C (second compound 1 µM, first compound 0.949 µM): 62% | viability, T/C (second compound 1 µM, first compound 3 µM): 51.2% | viability, T/C (second compound 3.16 µM, first compound 0.00949 µM): 55.8% | viability, T/C (second compound 3.16 µM, first compound 0.03 µM): 54.5% | viability, T/C (second compound 3.16 µM, first compound 0.0949 µM): 49.3% | viability, T/C (second compound 3.16 µM, first compound 0.3 µM): 48.2% | viability, T/C (second compound 3.16 µM, first compound 0.949 µM): 45.5% | viability, T/C (second compound 3.16 µM, first compound 3 µM): 39.4% | viability, T/C (second compound 10 µM, first compound 0.00949 µM): 46.7% | viability, T/C (second compound 10 µM, first compound 0.03 µM): 43.7% | viability, T/C (second compound 10 µM, first compound 0.0949 µM): 39.8% | viability, T/C (second compound 10 µM, first compound 0.3 µM): 34.8% | viability, T/C (second compound 10 µM, first compound 0.949 µM): 61.4% | viability, T/C (second compound 10 µM, first compound 3 µM): 34.5%
